Calls of active or inactive are those of the source.
What was measured:
Cytochrome P450 2D6 = Cytochrome P450 2D6 (Homo sapiens, UniProt P10635); test: qHTS Assay for Inhibitors and Substrates of Cytochrome P450 2D6. [Related pubchem assays: 410 ]; assay type: ADME; conditions: read-out: Potency
[1] = A Cell Based Secondary Assay To Explore Cytotoxicity of Compounds that Sensitize Mycobacterium Tuberculosis to Beta-Lactam Antibiotics.; assay type: functional
[2] = target: T1, Microphthalmia-associated transcription factor (Homo sapiens, UniProt O75030); test: reducers of TRPM1 reporter luminescence, concentration series – cell-based, SK-MEL-5, cherry-picked, set 3, MITF inhibitor project, dose response (AID 493073); assay type: functional;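 also: SK-MEL-5 melanoma cells with luciferase driven by the MITF target TRPM1 promoter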
T1 sequence (O75030 whole entry): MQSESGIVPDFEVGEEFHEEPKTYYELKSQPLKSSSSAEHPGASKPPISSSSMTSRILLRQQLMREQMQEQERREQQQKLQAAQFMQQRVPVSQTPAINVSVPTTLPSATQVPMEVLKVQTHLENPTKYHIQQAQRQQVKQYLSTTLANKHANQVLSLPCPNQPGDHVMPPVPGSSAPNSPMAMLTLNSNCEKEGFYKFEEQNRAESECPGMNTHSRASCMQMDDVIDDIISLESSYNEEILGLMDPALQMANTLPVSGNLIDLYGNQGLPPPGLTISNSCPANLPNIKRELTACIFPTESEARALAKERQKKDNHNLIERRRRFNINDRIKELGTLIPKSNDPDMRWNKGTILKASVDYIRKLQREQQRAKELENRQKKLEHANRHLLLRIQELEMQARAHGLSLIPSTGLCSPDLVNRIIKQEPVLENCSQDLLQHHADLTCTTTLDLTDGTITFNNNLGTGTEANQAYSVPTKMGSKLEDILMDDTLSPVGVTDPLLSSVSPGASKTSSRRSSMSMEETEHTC

Paired box protein Pax-8 = Paired box protein Pax-8 (Homo sapiens, UniProt Q06710); test: PAX8 transcriptional activity inhibition in RMG-I – RMG-I cells, luciferase, cherry-pick, dose response (AID 687027); assay type: functional, cell-based;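 also: luciferase reporter driven by Pax8 target thyroperoxidase promoter measured by SteadyGlo luminescence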
[3] = NIH-3T3 fibroblast cytotoxicity, dose response, cytotoxicity control, cell-based, fluorescence, Alamar Blue, secondary assay (AID 2327); assay type: functional;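 also: NIH-3T3 mouse fibroblasts cultured with fluconazole at 8 µg/mL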
Beta-galactosidase = Beta-galactosidase (Escherichia coli, UniProt Q8VNN2); test: PubChem AID 485352; assay type: functional
Vero = test: mammalian cell viability reduction – secondary assay, cytotoxicity control for West Nile virus antiviral project, dose response (AID 1650); assay type: functional; conditions: Chlorocebus sabaeus
[4] = fluconazole-exposed Candida albicans growth modulators – fluorescence, retest, confirmation (AID 2467); assay type: functional, cell-based
[5] = target: T2, Type-1 angiotensin II receptor (Homo sapiens, UniProt P30556); test: antagonism of angiotensin II type 1 receptor – cell-based, uHTS hits, selectivity assay for APJ receptor antagonist project, dose response (AID 463214); assay type: functional;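 also: antagonist potency against angiotensin II stimulated AT1 response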
T2 sequence (P30556 whole entry): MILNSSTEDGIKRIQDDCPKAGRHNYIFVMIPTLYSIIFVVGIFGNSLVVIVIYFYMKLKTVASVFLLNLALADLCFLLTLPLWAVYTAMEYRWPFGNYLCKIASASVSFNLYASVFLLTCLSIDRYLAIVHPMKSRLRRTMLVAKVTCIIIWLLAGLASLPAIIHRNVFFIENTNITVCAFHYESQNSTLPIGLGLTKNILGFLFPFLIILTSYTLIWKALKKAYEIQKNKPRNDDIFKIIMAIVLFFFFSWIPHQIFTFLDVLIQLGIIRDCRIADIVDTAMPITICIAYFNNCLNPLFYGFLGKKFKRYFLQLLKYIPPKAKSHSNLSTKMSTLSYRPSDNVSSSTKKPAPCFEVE

[6] = target: T3, Short transient receptor potential channel 4 (Mus musculus, UniProt Q9QUQ5); test: calcium entry via TRPC4 opening agents – cell-based, HEK293 TRPC4/mu-opioid, Fluo-4 calcium, dose response (AID 434937); assay type: functional
T3 sequence (Q9QUQ5 whole entry): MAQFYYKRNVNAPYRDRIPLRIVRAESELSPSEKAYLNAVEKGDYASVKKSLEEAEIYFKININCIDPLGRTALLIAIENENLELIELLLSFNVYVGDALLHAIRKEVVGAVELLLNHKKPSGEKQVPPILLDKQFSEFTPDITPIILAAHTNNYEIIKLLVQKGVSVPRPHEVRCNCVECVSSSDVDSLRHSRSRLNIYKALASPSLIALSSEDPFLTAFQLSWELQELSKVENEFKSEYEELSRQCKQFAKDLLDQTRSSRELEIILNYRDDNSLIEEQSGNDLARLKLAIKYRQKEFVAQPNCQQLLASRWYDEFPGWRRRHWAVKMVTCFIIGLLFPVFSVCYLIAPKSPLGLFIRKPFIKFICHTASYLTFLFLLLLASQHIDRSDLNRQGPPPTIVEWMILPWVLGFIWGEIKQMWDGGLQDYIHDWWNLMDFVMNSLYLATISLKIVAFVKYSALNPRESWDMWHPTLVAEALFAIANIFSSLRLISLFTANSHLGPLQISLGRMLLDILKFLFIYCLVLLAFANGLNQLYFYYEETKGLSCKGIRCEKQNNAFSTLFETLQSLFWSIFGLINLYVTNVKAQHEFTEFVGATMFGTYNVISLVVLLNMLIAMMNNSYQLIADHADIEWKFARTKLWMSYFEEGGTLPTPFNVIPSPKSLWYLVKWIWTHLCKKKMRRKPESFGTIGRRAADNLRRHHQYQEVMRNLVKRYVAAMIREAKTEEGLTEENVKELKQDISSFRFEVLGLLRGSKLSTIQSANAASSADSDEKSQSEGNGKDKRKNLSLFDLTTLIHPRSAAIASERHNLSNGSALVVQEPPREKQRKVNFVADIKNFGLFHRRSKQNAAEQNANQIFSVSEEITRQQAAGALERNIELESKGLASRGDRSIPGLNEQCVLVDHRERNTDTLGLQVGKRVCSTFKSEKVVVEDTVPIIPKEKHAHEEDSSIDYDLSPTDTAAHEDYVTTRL

INS1 = test: INS-1E survival protection against cytokine death – cell-based, luminescence, retest, dose response (AID 449756); assay type: functional; conditions: Rattus norvegicus;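 also: cell death triggered by IL-1 beta plus TNF-alpha plus IFN-gamma mixture; protective hits raise ATP signal compared with cytokine alone wells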
[7] = target: Mothers against decapentaplegic homolog 3 (Homo sapiens, UniProt P84022); test: blockers of Smad3 complex formation in lysate – cell lysate, secondary confirmation, chemiluminescent ELISA, HEK293 lysate, dose response (AID 1058); assay type: functional
Leucine aminopeptidase = target: T4, Leucine aminopeptidase (Plasmodium falciparum 3D7, UniProt Q8IL11); test: P. falciparum M17LAP inhibitors, primary screen, biochemical, fluorogenic H-Leu-NHMec substrate, 1536-well (AID 1619); assay type: functional
T4 sequence (Q8IL11 whole entry): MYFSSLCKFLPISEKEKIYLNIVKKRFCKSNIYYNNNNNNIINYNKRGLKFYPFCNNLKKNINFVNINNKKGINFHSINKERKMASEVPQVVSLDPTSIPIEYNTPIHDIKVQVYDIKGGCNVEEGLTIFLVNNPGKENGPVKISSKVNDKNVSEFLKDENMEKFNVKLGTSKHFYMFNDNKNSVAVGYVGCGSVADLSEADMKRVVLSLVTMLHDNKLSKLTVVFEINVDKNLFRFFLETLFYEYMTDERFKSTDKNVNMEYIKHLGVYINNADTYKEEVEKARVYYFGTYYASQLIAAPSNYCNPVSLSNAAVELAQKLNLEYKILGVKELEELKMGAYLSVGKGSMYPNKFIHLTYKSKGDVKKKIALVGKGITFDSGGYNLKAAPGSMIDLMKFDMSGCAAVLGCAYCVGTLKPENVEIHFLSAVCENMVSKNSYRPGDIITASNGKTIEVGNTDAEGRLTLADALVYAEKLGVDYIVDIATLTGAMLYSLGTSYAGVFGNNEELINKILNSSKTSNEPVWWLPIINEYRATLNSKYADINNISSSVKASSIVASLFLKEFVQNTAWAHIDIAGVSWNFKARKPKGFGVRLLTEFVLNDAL

Aspartyl aminopeptidase = target: T5, Aspartyl aminopeptidase (Plasmodium falciparum 3D7, UniProt Q8I2J3); test: Counterscreen for inhibitors of M1 and M17 aminopeptidases: QFRET-based biochemical high throughput dose response assay for inhibitors of the Plasmodium falciparum M18 Aspartyl Aminopeptidase (PFM18AAP). [Related PubChem assays: 1619 (Screening assay (M17LAP inhibitors).), 1445 (Screening assay (M1AAP inhibitors).)]
T5 sequence (Q8I2J3 whole entry): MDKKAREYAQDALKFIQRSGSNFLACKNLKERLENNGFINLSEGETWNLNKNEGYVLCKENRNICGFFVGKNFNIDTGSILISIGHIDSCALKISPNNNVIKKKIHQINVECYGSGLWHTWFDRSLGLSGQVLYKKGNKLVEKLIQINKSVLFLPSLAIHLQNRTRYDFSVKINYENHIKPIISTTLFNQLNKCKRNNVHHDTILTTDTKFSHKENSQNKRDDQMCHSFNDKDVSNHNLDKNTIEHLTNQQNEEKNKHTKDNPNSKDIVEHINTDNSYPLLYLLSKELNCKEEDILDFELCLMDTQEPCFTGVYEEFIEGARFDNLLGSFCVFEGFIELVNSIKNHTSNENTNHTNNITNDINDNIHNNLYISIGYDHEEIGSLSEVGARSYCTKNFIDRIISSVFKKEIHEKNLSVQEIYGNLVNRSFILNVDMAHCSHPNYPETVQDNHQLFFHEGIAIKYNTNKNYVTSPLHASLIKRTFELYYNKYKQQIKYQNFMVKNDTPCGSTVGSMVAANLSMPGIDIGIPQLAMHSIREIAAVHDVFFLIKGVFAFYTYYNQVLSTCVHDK

Procathepsin L = Procathepsin L (Homo sapiens, UniProt P07711); test: CTSL1 protease inhibition – biochemical, QFRET, 1536-well, counter-screen for M1/M17 aminopeptidase inhibitor project, dose response (AID 2214)
[8] = target: T6, Alkaline phosphatase, tissue-nonspecific isozyme (Homo sapiens, UniProt P05186)
T6 sequence (P05186 whole entry): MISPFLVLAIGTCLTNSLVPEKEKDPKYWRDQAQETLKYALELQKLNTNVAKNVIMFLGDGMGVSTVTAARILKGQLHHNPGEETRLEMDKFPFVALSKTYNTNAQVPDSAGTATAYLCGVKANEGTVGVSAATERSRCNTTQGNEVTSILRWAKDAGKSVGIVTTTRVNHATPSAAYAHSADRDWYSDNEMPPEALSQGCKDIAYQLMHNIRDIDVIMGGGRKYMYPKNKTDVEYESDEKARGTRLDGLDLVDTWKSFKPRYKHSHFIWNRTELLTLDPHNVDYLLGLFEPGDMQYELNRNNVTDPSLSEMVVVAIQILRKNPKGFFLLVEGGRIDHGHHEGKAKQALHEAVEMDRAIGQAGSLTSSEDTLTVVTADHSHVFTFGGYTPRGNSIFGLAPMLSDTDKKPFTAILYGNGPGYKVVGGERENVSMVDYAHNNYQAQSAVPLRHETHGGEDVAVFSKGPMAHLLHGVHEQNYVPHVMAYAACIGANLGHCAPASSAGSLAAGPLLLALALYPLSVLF

[9] = target: G-protein coupled receptor 55 (Homo sapiens, UniProt Q9Y2T6); test: inhibition of LPI-stimulated GPR55 beta-arrestin translocation – imaging, U2OS, beta-arrestin-GFP, LPI agonist, primary screen (AID 2013); assay type: functional;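 also: antagonist potency measured as reduced agonist-driven arrestin aggregation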
[10] = Luminescence Cell-Based Dose Retest to Confirm Inhibitors of Cancer Stem Cells. [Related pubchem assays (depositor defined):AID2717, AID2721]; assay type: functional; conditions: Homo sapiens
[11] = target: Heat shock protein HSP 90-alpha (Homo sapiens, UniProt P07900); assay type: functional, organism-based
[12] = IC50 of Artemis nuclease activity blockers – biochemical, fluorescence intensity, dose response (AID 720701); assay type: functional;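 also: Artemis endonuclease enzyme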
14-3-3 protein gamma = 14-3-3 protein gamma (Homo sapiens, UniProt P61981); test: modulators of 14-3-3 gamma client binding – dose response (AID 711); assay type: functional
Sequence of 14-3-3 protein gamma (P61981 whole entry): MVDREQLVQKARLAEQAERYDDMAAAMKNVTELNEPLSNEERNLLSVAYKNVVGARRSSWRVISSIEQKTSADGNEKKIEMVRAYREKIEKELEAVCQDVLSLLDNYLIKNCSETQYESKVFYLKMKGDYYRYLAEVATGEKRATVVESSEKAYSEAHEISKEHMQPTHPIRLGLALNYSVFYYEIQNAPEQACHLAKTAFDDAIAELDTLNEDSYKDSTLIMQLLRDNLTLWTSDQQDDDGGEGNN

Sequence of Mothers against decapentaplegic homolog 3 (P84022 whole entry): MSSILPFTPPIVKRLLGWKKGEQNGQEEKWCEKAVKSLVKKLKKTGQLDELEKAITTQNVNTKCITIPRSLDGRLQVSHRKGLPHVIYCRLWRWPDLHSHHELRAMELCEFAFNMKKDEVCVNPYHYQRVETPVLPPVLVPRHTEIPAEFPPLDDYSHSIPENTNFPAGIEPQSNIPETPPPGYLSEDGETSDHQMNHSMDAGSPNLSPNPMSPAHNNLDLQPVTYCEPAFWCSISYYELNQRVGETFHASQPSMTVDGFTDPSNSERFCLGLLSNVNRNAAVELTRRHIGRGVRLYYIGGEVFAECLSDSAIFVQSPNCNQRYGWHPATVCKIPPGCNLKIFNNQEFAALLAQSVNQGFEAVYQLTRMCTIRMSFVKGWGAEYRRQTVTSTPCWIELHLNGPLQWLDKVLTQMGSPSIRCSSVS
Sequence of Procathepsin L (P07711 whole entry): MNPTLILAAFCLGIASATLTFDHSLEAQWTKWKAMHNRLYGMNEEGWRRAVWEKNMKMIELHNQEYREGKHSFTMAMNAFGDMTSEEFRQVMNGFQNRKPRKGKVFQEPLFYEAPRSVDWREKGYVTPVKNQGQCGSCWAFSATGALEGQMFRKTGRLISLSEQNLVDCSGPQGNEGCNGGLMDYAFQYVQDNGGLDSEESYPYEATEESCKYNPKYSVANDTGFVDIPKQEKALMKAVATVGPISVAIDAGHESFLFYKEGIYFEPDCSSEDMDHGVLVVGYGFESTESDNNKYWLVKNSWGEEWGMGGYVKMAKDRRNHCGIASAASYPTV
Sequence of Cytochrome P450 2D6 (P10635 whole entry): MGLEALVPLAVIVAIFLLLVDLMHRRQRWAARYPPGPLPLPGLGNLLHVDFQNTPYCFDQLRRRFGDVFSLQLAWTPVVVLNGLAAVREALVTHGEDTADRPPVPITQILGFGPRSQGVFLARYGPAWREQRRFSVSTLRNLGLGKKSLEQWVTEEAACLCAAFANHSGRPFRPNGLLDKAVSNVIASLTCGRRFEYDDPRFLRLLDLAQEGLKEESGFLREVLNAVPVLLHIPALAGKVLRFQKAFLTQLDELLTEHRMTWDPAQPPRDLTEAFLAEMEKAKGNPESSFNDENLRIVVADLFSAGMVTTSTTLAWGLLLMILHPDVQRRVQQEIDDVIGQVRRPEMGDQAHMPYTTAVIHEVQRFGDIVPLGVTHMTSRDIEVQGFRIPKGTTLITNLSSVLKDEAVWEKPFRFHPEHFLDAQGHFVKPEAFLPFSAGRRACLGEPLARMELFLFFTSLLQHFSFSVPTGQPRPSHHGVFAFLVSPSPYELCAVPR
Sequence of Paired box protein Pax-8 (Q06710 whole entry): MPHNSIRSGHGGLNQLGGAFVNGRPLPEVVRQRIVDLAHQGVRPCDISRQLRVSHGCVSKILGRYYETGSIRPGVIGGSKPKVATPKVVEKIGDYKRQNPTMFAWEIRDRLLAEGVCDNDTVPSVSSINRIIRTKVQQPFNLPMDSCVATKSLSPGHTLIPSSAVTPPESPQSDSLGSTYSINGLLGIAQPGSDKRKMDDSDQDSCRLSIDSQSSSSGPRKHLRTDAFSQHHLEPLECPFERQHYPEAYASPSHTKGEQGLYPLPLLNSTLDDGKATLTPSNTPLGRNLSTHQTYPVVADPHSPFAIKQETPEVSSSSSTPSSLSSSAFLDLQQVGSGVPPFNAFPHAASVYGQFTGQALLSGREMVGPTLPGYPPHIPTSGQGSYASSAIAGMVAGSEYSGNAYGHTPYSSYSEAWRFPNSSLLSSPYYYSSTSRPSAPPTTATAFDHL
Sequence of Beta-galactosidase (Q8VNN2 whole entry): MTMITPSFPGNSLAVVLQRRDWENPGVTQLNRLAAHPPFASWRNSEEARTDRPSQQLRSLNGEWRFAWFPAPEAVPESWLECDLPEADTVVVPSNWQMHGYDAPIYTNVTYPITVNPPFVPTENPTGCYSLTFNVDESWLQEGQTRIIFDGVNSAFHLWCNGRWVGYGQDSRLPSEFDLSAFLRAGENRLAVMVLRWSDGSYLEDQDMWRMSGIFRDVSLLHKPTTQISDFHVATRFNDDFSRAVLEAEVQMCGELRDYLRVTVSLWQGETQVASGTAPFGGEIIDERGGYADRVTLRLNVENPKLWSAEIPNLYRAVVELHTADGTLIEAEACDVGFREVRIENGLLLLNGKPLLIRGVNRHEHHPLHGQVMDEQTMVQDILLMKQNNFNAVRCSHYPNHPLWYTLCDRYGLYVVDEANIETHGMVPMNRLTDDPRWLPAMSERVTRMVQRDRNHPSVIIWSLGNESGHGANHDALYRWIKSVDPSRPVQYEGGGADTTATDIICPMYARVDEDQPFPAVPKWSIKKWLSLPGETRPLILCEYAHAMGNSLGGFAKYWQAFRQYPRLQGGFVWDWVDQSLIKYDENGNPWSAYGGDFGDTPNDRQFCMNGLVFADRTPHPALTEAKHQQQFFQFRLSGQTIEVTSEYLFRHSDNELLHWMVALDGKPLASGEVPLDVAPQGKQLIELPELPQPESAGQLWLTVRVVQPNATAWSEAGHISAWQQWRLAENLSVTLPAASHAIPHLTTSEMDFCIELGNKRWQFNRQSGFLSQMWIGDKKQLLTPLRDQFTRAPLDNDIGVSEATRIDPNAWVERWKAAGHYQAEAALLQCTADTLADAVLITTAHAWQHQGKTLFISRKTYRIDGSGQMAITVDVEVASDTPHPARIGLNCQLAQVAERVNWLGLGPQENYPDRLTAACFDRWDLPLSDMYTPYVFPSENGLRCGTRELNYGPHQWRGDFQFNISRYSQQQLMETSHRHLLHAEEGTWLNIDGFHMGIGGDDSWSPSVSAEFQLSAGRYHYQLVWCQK
Sequence of G-protein coupled receptor 55 (Q9Y2T6 whole entry): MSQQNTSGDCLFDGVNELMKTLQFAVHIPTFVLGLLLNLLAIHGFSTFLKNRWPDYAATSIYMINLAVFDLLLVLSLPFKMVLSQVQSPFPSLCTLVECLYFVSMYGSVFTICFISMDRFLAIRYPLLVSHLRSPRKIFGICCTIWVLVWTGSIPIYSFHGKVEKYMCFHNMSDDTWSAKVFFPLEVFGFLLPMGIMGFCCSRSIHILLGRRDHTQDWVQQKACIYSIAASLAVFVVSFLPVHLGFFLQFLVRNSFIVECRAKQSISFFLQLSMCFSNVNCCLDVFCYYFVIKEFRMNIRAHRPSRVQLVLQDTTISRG

## COc1ccc(OC2C=CC(c3ccccc3)OC2CO)cc1 (stereo not drawn)
Cytochrome P450 2D6
  AC50: 6.31 µM (inconclusive)

## C=C1C(=O)O[C@@H]2[C@H]1[C@@H](OC(=O)/C(C)=C/C)C/C(C)=C\C(=O)/C=C(\C)[C@@H]2O
[1]
  CC50: 4.26 µM (active)
[2]
  AC50: 7.07 µM (active)
Paired box protein Pax-8
  AC50: 4.03 µM (active)

## CC(C)(C)C(=O)NC(=S)NNC(=O)c1ccc(-c2ccccc2)cc1
[3]
  EC50: 3.25 µM (active)
Beta-galactosidase
  EC50: > 40 µM (inactive)
Vero
  CC50: 4.57 µM (active)
[4]
  EC50: 0.694 µM (active)
[5]
  IC50: 10.8 µM (active)
[6]
  EC50: 1.5 µM (active)
INS1
  AC50: 2.14 µM (active)

## COc1ccc(C(c2cc3c(cc2O)OCO3)N2CCOCC2)c(OC)c1 (stereo not drawn)
[7]
  IC50: > 40 µM (not active)

## COC(=O)c1c(-c2cc(C)ccc2C)csc1NC(=O)C1CC=CCC1C(=O)O (stereo not drawn)
Leucine aminopeptidase
  IC50: < 1 µM (active)
Aspartyl aminopeptidase
  IC50: > 73.5 µM (not active)
Procathepsin L
  IC50: > 59.6 µM (not active)

## c1ccc(-c2c(-c3ccccc3)n(Cc3ccco3)c3ncnc(NCCCn4ccnc4)c23)cc1
[8]
  EC50: 63 µM (not active)
[9]
  IC50: 2.09 µM (active)
[10]
  AC50: 5.23 µM (active)
[11]
  AC50: 2.53 µM (active)
[12]
  IC50: 17.8 µM (active)

## CCN(CC)CCNCC1C(=O)O[C@@H]2C[C@@]3(C)CCC[C@H](C)C3=C[C@H]12 (stereo partly drawn)
Vero
  CC50: > 100 µM (active)

## O=C1C=CC(=C(c2ccc(O)c(O)c2)c2ccccc2S(=O)(=O)O)C=C1O [PYROCATECHOL VIOLET]
[7]
  IC50: 3.28 µM (not active)

## CCCCc1ccc(NC(=S)NCCc2ccc(S(N)(=O)=O)cc2)cc1
[8]
  EC50: > 100 µM (not active)

## COc1cc2c(cc1O)CCN[C@H]2C
Cytochrome P450 2D6
  AC50: 20 µM (inconclusive)

## Cc1sc(NC(=O)C2CC(Cl)=CCC2C(=O)O)c(C#N)c1C (stereo not drawn)
Leucine aminopeptidase
  IC50: 1.73 µM (active)
Aspartyl aminopeptidase
  IC50: > 73.5 µM (not active)
Procathepsin L
  IC50: > 59.6 µM (not active)

## CCOc1ccc2[nH]c(=O)c(CN(CC3COCCO3)C(=O)C3CC3)cc2c1 (stereo not drawn)
14-3-3 protein gamma
  IC50: > 50 µM (not active)
